Drawing on ChEMBL document CHEMBL1201862, “PubChem BioAssay data set” (2004), this text covers IC50, EC50 and AC50 for 4 compounds.

SMILES strings stand for the structures. The source made the active and inactive calls. Where only a bound is given, the exact number is not on record here.

Usually AC50 stands for the midpoint of the concentration-response curve, whichever way the signal moves.

In experiment [1] the target is T1, Neuropeptide Y receptor type 1 (Homo sapiens, UniProt P25929).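 Further: HEK293 cells with a CNG channel challenged with NPY then isoproterenol; potency as antagonist that reverses NPY suppression of cAMP signal.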
T1 sequence (P25929 whole entry): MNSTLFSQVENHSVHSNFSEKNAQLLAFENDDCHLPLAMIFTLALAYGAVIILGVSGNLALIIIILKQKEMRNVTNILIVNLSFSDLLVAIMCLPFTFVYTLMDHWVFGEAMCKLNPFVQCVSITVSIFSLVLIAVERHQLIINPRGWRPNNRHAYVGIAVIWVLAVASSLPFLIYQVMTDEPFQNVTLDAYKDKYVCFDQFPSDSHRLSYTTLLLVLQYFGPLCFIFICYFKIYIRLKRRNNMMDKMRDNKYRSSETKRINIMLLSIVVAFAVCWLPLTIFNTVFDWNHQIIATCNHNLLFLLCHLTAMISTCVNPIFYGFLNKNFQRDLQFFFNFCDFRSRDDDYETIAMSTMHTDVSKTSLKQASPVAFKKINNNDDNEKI
The experiment is classed as functional.

The target of another experiment is Phospholipase A2 (Homo sapiens, UniProt P04054). Description: phospholipase A2 activity inhibition – biochemical, set 2, counter-screen for ATG4B inhibitor project, dose response (AID 588586). The experiment is classed as functional.
For experiment [2], the target named is T2, Neuropeptide Y receptor type 2 (Homo sapiens, UniProt P49146).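 Further: HEK293 cells expressing the receptor and a CNG channel; stimulus was NPY near EC95 followed by isoproterenol to raise cAMP; antagonist potency measured as restoring cAMP signal that NPY suppresses.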
T2 sequence (P49146 whole entry): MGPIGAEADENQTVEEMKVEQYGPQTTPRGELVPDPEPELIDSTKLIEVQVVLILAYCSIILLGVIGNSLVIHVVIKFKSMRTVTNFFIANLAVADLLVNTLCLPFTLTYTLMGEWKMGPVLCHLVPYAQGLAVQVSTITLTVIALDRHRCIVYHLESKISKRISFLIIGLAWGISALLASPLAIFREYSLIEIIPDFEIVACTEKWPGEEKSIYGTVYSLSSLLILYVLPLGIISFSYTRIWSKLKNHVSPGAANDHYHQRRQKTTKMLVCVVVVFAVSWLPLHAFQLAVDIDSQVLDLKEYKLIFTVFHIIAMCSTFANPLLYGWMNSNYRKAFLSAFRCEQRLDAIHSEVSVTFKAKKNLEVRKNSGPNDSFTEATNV
The experiment is classed as functional, cell-based.

Another experiment has as its target T3, Cysteine protease ATG4B (Homo sapiens, UniProt Q9Y4P1).
T3 sequence (Q9Y4P1 whole entry): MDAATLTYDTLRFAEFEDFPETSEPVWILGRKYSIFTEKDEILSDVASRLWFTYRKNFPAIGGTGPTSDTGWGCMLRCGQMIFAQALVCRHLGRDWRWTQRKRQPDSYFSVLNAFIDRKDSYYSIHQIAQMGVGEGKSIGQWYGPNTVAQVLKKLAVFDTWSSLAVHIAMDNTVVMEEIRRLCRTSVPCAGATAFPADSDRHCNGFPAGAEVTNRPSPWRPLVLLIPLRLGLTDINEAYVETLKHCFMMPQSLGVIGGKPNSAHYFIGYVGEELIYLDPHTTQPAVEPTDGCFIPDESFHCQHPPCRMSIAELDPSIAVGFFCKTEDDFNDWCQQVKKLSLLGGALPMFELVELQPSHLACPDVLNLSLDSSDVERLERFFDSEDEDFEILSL
Description: autophagin-1 cysteine protease inhibition – biochemical, fluorescence, set 2, dose response (AID 588584). The experiment is classed as functional.

Experiment [3] deals with T4, Apoptotic protease-activating factor 1 (Homo sapiens, UniProt O14727).
T4 sequence (O14727 whole entry): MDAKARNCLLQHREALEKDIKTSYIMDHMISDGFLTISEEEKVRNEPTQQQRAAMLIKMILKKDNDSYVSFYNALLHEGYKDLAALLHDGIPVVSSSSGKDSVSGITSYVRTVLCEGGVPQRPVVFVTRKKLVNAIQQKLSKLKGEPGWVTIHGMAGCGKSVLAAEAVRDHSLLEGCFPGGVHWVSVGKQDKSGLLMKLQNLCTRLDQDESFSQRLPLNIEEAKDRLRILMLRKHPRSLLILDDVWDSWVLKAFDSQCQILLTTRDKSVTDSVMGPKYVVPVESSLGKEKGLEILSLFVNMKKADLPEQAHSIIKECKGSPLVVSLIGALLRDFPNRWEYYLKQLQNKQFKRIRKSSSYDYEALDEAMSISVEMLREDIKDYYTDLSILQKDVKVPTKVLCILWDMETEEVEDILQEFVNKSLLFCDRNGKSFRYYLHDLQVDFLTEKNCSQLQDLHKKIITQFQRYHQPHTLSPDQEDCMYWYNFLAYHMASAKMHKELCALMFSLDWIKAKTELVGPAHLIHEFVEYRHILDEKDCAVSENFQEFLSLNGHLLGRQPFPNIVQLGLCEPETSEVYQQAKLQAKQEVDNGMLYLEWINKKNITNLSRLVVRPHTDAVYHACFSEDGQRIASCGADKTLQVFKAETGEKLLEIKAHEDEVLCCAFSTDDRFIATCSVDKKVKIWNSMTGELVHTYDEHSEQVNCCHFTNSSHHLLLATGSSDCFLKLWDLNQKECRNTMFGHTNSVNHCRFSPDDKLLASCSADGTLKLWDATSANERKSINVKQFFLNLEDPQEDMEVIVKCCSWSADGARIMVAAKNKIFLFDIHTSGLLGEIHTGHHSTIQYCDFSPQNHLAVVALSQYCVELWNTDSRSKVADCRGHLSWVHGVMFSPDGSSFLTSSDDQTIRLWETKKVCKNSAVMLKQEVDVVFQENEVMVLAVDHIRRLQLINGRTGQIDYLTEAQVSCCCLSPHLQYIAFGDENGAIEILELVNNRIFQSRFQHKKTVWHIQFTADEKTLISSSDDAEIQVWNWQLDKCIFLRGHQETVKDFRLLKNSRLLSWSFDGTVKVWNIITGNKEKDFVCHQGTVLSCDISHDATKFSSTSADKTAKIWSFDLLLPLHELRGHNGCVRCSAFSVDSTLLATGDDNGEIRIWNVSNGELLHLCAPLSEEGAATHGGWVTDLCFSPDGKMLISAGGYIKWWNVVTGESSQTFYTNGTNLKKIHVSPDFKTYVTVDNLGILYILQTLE
Nature of the experiment: activation of Apaf-1 mediated apoptosis – fluorescent, uHTS hits, dose response (AID 588554). It counts as functional.

Experiment [4] concerns the target T5, Voltage-gated N-type calcium channel alpha-1B subunit/Amyloid beta A4 precursor protein-binding family A member 1 (Homo sapiens, UniProt Q00975+Q02410). The experiment is classed as protein assay.
The target in experiment [5] is T6, Small ubiquitin-related modifier 1 (Homo sapiens, UniProt P63165). Description: SUMO1 protein-protein binding blockers, potency – biochemical, FRET, dose response (AID 624383). It counts as functional. Conditions: read-out: IC50_Mean.
Experiment [6] concerns the target T4, Apoptotic protease-activating factor 1. Nature of the experiment: SAR analysis of small molecule Activators of Apaf-1 in a Fluorescent assay. The experiment is classed as functional. Conditions: read-out: EC50_Mean.
Experiment [7] concerns the target T5, Voltage-gated N-type calcium channel alpha-1B subunit/Amyloid beta A4 precursor protein-binding family A member 1. The experiment is classed as protein assay. The source holds these as a separate data set.
The target in experiment [8] is T6, Small ubiquitin-related modifier 1. Description: SUMO1 protein interaction blockers, potency – biochemical, fluorescence polarization, uHTS hits, dose response (AID 624382). The experiment is classed as functional. Conditions: read-out: IC50_Mean.
For experiment [9], the target named is Glyceraldehyde-3-phosphate dehydrogenase (Homo sapiens, UniProt P04406).
Experiment [10] addresses T7, Dual specificity protein phosphatase 6 (Rattus norvegicus, UniProt Q64346).
Experiment [11] addresses T8, Tyrosine-protein phosphatase non-receptor type 7 (Homo sapiens, UniProt P35236).
T8 sequence (P35236 whole entry): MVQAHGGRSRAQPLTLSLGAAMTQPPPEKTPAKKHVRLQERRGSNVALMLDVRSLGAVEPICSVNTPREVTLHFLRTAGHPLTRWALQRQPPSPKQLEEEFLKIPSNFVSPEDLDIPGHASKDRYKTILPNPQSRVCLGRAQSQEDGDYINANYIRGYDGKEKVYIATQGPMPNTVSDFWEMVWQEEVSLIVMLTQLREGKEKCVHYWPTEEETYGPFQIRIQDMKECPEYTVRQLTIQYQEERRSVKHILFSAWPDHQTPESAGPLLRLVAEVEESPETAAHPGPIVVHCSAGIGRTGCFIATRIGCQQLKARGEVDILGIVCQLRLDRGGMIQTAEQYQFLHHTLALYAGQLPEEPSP
It counts as functional.

Experiment [12] addresses T7, Dual specificity protein phosphatase 6. It counts as functional.
For experiment [13], the system named is Candida albicans. Nature of the experiment: single-agent antifungal toxicity in C. albicans – CaCi-2 strain, Alamar Blue, dry powder, set 2, counter-screen for antifungal drug resistance project, dose response (AID 488893). It counts as functional, organism-based. On the technique in general: Resazurin is reduced to fluorescent resorufin, in cell work by metabolically active cells.

Experiment [14] concerns Candida albicans. Nature of the experiment: fluconazole-resistant Candida strain growth inhibitors – CaCi-8 strain, dry powder, set 4, dose response (AID 488950). The experiment is classed as functional, organism-based.
Experiment [15] concerns Candida albicans. Description: single-agent toxicity toward C. albicans – CaCi-2 strain, no fluconazole, dry powder, set 4, counter-screen for reversing antifungal drug resistance, dose response (AID 488932). The experiment is classed as functional, organism-based. Background: A counterscreen serves to expose hits that act by an unwanted route or on another target.
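Wherever EC50 Mean is given: caspase-3 cleavage of fluorogenic Rh110 DEVD substrate downstream of apoptosome activation.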

T7 sequence (Q64346 whole entry): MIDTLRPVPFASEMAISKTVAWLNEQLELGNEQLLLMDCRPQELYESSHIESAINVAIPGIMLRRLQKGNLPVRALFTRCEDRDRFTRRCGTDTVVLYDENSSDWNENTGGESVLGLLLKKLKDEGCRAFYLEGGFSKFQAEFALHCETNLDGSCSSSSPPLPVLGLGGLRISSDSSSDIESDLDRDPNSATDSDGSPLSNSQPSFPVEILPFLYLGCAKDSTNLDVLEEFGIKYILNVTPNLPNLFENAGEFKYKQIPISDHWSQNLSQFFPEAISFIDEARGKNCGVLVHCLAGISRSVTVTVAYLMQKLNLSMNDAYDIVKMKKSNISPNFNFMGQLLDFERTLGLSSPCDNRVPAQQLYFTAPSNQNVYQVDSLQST
T6 sequence (P63165 whole entry): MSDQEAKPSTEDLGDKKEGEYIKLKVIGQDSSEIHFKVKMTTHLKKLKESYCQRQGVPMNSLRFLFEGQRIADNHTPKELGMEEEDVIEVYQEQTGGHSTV
T5 sequence (Q00975 whole entry): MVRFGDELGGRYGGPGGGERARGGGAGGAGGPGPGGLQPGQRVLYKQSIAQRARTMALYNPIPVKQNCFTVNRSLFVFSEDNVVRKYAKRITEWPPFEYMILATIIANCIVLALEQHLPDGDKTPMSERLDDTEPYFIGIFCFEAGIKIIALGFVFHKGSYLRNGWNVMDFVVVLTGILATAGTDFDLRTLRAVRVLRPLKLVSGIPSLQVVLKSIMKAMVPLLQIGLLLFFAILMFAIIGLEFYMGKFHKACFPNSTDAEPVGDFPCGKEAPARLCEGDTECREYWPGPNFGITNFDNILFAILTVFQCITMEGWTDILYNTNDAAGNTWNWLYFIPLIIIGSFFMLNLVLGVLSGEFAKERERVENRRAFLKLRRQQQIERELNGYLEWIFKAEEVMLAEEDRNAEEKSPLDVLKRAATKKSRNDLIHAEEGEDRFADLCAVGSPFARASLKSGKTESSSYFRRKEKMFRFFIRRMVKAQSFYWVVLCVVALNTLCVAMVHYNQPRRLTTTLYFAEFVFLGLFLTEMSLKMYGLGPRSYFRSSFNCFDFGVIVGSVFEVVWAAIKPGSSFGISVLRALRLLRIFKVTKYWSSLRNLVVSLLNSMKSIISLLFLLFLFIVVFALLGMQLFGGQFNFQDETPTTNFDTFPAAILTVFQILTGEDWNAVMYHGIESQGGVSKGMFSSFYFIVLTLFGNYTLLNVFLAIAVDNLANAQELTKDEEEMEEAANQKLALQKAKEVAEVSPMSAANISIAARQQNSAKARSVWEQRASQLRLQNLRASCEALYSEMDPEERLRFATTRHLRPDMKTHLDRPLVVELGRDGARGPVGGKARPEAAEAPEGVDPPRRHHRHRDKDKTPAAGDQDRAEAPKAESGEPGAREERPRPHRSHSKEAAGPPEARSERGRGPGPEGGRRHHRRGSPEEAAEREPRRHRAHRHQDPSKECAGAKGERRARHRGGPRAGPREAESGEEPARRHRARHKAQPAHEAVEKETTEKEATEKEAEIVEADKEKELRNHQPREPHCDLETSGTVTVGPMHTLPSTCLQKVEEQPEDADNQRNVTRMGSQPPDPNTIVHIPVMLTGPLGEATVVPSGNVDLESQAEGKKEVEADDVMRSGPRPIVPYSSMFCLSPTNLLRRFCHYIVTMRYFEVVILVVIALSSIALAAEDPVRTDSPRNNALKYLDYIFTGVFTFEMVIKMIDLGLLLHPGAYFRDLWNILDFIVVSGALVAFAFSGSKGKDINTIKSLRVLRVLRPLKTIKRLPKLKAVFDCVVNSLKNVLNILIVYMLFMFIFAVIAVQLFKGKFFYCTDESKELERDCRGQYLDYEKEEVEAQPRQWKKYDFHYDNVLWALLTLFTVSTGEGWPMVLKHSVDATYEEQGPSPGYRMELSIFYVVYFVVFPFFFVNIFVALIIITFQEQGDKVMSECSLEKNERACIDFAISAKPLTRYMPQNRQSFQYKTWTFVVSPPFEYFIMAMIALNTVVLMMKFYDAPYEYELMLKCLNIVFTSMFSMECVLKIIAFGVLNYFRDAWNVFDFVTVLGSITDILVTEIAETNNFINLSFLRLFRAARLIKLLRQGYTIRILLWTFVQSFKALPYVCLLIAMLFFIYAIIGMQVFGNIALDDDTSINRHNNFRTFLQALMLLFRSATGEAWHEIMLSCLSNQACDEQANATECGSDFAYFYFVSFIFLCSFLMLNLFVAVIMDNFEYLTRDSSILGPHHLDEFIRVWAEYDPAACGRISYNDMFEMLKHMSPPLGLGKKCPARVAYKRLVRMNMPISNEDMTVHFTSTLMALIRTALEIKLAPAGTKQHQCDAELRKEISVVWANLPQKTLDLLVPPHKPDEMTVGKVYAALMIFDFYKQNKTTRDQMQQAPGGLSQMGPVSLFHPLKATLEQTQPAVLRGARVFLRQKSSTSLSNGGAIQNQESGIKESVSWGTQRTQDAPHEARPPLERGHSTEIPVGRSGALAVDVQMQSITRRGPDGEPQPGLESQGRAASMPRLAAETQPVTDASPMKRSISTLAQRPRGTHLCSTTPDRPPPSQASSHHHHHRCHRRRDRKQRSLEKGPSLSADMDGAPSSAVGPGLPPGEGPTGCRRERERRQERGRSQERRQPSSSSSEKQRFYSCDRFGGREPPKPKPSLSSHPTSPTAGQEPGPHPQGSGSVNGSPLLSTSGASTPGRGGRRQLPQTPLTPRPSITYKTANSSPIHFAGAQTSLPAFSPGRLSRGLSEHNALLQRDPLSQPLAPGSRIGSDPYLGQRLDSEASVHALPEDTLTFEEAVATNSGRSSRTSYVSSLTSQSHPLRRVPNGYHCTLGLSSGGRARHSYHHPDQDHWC
T5 sequence (Q02410 whole entry): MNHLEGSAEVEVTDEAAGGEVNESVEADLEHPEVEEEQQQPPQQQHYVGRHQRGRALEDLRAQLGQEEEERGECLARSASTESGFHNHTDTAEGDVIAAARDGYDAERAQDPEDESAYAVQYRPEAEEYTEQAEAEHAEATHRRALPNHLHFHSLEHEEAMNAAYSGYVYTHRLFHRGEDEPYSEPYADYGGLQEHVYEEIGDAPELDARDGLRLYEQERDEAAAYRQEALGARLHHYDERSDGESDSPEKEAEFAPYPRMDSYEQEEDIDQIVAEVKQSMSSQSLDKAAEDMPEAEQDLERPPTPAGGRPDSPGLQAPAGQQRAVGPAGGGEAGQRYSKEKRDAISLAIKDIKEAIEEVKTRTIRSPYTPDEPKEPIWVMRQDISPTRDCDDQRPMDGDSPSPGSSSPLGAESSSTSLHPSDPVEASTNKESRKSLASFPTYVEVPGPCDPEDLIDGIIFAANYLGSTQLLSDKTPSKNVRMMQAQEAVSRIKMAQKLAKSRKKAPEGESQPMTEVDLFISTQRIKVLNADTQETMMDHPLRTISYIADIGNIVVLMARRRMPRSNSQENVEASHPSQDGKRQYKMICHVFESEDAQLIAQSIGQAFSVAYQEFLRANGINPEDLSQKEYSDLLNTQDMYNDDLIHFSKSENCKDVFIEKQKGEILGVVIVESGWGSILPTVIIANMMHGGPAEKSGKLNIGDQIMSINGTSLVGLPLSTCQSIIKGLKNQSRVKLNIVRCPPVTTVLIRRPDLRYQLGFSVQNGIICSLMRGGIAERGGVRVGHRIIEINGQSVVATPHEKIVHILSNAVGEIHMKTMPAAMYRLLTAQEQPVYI
Glyceraldehyde-3-phosphate dehydrogenase, sequence (P04406 whole entry): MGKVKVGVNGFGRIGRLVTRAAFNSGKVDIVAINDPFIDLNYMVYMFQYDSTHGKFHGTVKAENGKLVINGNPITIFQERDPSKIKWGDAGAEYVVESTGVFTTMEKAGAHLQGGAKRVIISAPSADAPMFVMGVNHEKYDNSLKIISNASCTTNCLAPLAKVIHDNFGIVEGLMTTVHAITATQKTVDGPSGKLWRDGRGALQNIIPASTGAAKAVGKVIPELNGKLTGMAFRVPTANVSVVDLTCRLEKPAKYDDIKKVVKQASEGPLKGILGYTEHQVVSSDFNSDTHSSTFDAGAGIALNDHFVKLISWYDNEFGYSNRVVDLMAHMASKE
Phospholipase A2, sequence (P04054 whole entry): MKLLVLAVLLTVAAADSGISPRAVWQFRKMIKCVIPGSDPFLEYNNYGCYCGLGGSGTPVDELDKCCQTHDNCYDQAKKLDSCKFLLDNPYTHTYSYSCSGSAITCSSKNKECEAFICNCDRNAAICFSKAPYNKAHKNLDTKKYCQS

As to `Cc1ccccc1C(=O)c1cccn1CC(=O)NCCN1CCN(c2cccc(C)c2C)CC1`, the IC50 in experiment [1] is 6.43 µM (active); on Phospholipase A2 it was 17.7 µM (active); in experiment [2] it was 13.2 µM (not active); on Cysteine protease ATG4B, 25.3 µM (inactive).

As to `O=C(Nc1nc2ccsc2c(=O)s1)c1ccco1`, the EC50 was 22.8 µM (active) in experiment [3] and 59 µM (active) in experiment [6]. Also, the IC50 in experiment [4] was > 50 µM (inactive); in experiment [5], 15.9 µM (active); in [7], 11.8 µM (active); in [8], > 66.6 µM (inactive).

As to `CCn1c(SCC(=O)O)nc2sc3c(c2c1=O)CCCC3`, the IC50 was > 100 µM (not active) in experiment [9], > 100 µM (inactive) in experiment [10], > 100 µM (not active) in [11] and > 100 µM (inactive) in experiment [12].

`COCCC(=O)N1CCN(c2ccnc3cc(Cl)ccc23)CC1`: the values for the AC50 in the experiment on Candida albicans [13], in the experiment on Candida albicans [14] and in the experiment on Candida albicans [15] were > 260 µM (inactive), 72.5 µM (active) and 136 µM (active), respectively.
